Measured values published in patent publication US5550249A, “Water soluble derivatives of biotin and related therapeutical compositions” (Lifegroup, S.p.A., priority 1991, dated 1996).
Read-outs that look alike come from different tables or passages of the source.

Assays:
[1] = test system: seborrheal dermatitis of the newborn; conditions: cited from earlier work
[2] = test system: peripheral neuropathies having diabetic origin; conditions: human beings; cited from earlier work
[3] = Partition in water/octanol (14C-biotin, scintillation counting); format: physicochemical
Description: ^14 C-biotin (53000 dpm) was used admixed with cool biotin (0.25 mmol) in 5 ml of twice distilled water, in the presence and in the absence of ethanolamine (3 μl), then adding 5 ml of octanol and stirring (1 minute by means of a stirrer VORTEX). After separation of the phases the radioactivity was measured by scintillation (Beckman counter) in 1 ml of sample. The amount of ^14 C-biotin transferred into the octanolic phase was 14443 dpm in the absence of ethanolamine and 82 dpm in the presence of ethanolamine.
This confirms the increase in solubility in the aqueous phase, which is a consequence of the salification.

glucokinase = conditions: recent studies; cited from earlier work
[4] = test system: carboxylase enzymes deficiency; conditions: cited from earlier work
vitamin H deficiency = conditions: cited from earlier work
[5] = cited from earlier work
diabetes = conditions: cited from earlier work
insulin = conditions: recent studies; cited from earlier work
[6] = Solubility in cold ethanol; format: physicochemical
Water solubility = format: physicochemical; conditions: salts of biotin with an aminoalcohol
[7] = water/octanol, average of 3 tests

SMILES: O=C(O)CCCC[C@@H]1SC[C@@H]2NC(=O)N[C@@H]21 [Biotin, biotin]
- effect in seborrheal dermatitis in the newborn [1]: particularly effective
- treatment and prevention of diabetic peripheral neuropathies [2]: advantageously utilized
- H2O (dpm) ([3]; pH 4, average of 3 tests): 40769 dpm
- H2O/octanol ([3]; pH 4, average of 3 tests): 2.9
- octanol (dpm) ([3]; pH 4, average of 3 tests): 13991 dpm
- H2O (dpm) [3, 7]: 40940 dpm
- H2O/octanol [3, 7]: 2.8
- octanol (dpm) [3, 7]: 14443 dpm
- activation of glucokinase (glucokinase): able to activate
- effect in diseases coming from a deficiency in multiple carboxylase enzymes ([4]; multiple carboxylase enzymes): effective
- effect in diseases caused by single carboxylase enzymes insufficiency ([4]; single carboxylase enzymes (propionyl-CoA, pyruvate, β-methyl-crotonyl carboxylase)): uneffective
- egg-white injury (vitamin H deficiency; Sidenstricker and co-workers, 1942): can be defeated
- secondary effects of vitamin deficiency (vitamin H deficiency; following administration of biotin for a certain time): disappeared
- water solubility ([5]; biotin as such): 22 mg/100 ml
- water solubility (in words) ([5]; prior art): poor water solubility
- blood glucose level (diabetes; insulin-dependent diabetics): lowers the blood glucose level
- glucose tolerance (diabetes; insulin-independent diabetes): increase glucose tolerance
- post-prandial glucose level (diabetes; insulin-independent diabetes): reduce the post-prandial glucose level
- resistance to insulin (diabetes; insulin-independent diabetes): lower resistance to insulin
- activation of insulin (insulin): able to activate

SMILES: O=C(O)CCCC[C@@H]1SC[C@@H]2NC(=O)N[C@@H]21 [Ethanolamine biotinate, ethanolamine biotinate]
- H2O (dpm) ([3]; pH 4, average of 3 tests): 32148 dpm
- H2O/octanol ([3]; pH 4, average of 3 tests): 2.6
- octanol (dpm) ([3]; pH 4, average of 3 tests): 12300 dpm
- H2O (dpm) [3, 7]: 36664 dpm
- H2O/octanol [3, 7]: 447.1
- octanol (dpm) [3, 7]: 82 dpm
- solubility in cold ethanol (in words) [6]: rather soluble in cold ethanol
- water solubility (in words) (Water solubility): completely water soluble

SMILES: O=C(O)CCCC[C@@H]1SC[C@@H]2NC(=O)N[C@@H]21 [^14 C-biotin]
- change of amount of 14C-biotin transferred into the octanolic phase ([3]; aqueous phase brought to pH 4, in the absence of ethanolamine): always remains the same
- increase of amount of 14C-biotin transferred into the octanolic phase ([3]; aqueous phase brought to pH 4, in the presence of ethanolamine): 170 times
- amount of 14C-biotin transferred into the octanolic phase ([3]; in the absence of ethanolamine): 14443 dpm
- amount of 14C-biotin transferred into the octanolic phase ([3]; in the presence of ethanolamine (3 μl)): 82 dpm
